According to US20250197372A1 (priority 2020, published 2025):

Experiments:
Type in all cases: biochemical
[1] = biological target: rat sucrase (partially purified alpha-glucosidase from intestinal rat powder) (Rattus norvegicus, UniProt P23739); experiment: Intestinal alpha-glucosidase assay, sucrose substrate (Glucose GO Kit)
In short: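 Partially purified alpha-glucosidase from rat intestinal powder was preincubated 60 min at 37 °C with serial compound dilutions, then given maltose or sucrose and incubated 30 min at 37 °C.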

[2] = biological target: T1, recombinant alpha-glucosidase II (murine full-length glucosidase II, alpha and beta subunits, Glu 2) (Mus musculus, UniProt Q8BHN3); experiment: Alpha-glucosidase II assay (4-methylumbelliferyl-alpha-D-pyranoside substrate, fluorescence); settings: Glucosidase 2; read-out: Glu2 IC50
T1 construct: made in house; host or cells: HEK-293T cells transduced with BacMam viruses (75% alpha, 25% beta); protein harvested from culture supernatant

[3] = biological target: T2, recombinant alpha-glucosidase I (human full-length glucosidase I, Glu 1) (Homo sapiens, UniProt Q13724); experiment: Alpha-glucosidase I assay (Amplex Red glucose detection, synthetic trisaccharide substrate); settings: Glucosidase 1; read-out: Glu 1 IC50
T2 construct: 6-His (C); made in house; host or cells: HEK-293T cells transduced with BacMam virus (virus raised in Sf9)
T2 sequence (Q13724 1-837): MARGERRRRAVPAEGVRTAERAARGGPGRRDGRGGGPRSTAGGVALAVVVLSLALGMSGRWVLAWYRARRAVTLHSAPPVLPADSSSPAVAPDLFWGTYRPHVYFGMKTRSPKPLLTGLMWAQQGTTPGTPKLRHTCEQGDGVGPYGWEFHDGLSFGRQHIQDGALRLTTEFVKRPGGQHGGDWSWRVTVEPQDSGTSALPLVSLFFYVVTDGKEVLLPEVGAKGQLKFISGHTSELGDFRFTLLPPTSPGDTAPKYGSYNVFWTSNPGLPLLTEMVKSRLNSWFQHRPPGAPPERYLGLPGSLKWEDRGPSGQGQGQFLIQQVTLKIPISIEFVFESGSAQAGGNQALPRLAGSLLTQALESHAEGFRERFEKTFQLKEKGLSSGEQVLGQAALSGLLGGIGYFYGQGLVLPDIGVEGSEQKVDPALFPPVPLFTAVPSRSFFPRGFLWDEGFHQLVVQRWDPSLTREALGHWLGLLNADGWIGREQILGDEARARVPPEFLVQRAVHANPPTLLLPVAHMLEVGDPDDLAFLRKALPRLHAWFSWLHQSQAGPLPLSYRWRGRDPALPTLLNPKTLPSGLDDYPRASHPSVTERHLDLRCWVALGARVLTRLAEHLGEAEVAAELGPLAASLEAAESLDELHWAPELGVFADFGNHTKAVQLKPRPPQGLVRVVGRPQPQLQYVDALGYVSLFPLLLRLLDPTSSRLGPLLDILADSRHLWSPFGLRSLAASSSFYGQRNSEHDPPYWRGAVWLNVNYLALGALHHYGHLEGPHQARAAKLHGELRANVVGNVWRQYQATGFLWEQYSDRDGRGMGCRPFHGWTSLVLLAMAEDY
In short: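 Compound dilution series incubated 60 min at 37° C with recombinant His-tagged human glucosidase I ([…]), after which trisaccharide substrate analog was added for 90 min at 37° C. Reaction quenched with 1.5M Tris pH 8; D-glucose detected by Amplex Red fluorescence, 560/590 nm. 4-PL curve fit of percent inhibition gave IC50.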

T1 sequence (O08795 15-521): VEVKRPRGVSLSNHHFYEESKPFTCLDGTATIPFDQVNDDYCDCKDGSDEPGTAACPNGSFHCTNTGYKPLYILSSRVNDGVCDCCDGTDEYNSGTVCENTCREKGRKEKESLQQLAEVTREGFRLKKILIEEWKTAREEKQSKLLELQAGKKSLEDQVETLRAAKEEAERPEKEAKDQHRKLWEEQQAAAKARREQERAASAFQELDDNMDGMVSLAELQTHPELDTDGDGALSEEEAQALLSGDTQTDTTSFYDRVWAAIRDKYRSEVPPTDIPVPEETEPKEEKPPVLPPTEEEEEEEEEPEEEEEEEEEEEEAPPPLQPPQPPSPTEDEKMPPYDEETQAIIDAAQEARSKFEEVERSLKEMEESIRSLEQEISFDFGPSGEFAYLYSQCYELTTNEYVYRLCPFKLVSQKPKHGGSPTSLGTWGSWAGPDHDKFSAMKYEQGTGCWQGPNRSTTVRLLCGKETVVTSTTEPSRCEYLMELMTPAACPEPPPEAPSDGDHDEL
T1 sequence (Q8BHN3 33-944): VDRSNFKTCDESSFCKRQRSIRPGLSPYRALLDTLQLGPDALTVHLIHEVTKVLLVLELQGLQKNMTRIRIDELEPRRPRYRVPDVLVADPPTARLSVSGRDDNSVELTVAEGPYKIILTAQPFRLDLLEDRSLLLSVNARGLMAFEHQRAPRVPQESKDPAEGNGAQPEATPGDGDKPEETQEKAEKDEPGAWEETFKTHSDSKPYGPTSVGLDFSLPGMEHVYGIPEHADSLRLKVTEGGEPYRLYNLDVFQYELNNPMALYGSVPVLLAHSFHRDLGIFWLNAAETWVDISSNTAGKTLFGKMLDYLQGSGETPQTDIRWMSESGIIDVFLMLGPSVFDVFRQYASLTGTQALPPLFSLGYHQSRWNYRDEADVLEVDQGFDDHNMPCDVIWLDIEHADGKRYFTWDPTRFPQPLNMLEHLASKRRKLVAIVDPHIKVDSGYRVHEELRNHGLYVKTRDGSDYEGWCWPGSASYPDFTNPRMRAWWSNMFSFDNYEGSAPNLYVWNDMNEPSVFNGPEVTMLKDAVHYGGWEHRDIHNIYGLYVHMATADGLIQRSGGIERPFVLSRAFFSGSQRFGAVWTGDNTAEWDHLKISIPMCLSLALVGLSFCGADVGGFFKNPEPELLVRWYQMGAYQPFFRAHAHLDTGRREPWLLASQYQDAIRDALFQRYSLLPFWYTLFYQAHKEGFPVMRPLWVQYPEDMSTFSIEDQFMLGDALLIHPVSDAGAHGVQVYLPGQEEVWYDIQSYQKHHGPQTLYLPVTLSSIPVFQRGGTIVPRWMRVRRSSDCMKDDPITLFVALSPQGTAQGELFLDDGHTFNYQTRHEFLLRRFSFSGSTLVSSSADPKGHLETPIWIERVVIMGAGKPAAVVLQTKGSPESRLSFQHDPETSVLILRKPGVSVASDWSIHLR
rat sucrase (partially purified alpha-glucosidase from intestinal rat powder), sequence (P23739 whole entry): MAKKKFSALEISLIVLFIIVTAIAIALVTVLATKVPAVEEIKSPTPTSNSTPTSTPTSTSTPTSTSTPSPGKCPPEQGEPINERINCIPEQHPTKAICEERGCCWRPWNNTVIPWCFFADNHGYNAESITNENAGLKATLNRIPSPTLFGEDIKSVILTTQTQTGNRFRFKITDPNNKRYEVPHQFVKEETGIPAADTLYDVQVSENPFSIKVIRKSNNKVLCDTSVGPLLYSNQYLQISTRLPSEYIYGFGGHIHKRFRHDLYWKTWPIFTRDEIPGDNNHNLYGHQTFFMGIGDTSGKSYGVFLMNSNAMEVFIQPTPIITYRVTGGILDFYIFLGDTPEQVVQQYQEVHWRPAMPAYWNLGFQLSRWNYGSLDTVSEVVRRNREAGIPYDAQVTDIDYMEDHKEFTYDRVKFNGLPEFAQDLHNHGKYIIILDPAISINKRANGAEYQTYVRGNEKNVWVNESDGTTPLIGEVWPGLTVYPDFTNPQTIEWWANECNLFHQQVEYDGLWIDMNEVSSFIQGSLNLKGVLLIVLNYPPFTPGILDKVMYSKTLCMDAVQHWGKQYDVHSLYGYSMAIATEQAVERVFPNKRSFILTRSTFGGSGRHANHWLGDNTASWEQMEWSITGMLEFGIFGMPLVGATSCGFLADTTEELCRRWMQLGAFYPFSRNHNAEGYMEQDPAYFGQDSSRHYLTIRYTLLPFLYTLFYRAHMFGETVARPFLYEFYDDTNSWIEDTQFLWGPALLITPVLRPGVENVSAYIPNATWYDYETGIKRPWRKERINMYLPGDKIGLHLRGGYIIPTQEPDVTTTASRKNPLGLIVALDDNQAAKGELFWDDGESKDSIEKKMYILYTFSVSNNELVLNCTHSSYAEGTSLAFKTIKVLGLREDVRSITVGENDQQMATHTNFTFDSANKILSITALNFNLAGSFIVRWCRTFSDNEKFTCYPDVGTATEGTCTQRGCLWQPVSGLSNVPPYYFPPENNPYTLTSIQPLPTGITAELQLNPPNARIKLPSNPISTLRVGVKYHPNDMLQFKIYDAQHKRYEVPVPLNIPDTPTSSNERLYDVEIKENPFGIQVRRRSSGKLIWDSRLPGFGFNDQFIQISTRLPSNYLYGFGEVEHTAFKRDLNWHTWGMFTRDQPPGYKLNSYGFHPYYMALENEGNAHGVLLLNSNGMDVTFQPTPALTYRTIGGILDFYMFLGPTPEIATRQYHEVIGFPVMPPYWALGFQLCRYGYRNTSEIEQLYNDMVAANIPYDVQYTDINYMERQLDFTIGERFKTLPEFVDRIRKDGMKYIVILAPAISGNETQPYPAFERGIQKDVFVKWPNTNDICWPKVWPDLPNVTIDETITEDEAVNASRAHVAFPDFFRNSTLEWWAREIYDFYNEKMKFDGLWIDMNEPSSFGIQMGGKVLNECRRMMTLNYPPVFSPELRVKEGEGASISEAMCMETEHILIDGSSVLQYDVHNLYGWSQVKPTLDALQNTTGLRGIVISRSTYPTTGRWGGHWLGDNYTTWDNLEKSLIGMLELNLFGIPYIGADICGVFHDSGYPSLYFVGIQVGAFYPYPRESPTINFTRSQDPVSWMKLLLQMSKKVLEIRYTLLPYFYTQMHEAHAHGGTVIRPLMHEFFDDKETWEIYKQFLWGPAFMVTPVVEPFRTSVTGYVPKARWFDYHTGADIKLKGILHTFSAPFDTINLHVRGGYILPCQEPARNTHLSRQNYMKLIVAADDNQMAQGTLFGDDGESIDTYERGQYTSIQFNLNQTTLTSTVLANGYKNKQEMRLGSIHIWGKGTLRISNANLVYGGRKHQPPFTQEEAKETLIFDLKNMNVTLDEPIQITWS

O=[N+]([O-])c1cc(-c2ncccn2)ccc1NCc1ccc(CN2C[C@H](O)[C@@H](O)[C@H](O)[C@H]2CO)cc1 [Compound 1102, (2R,3R,4R,5S)-2-(hydroxymethyl)-1-{[4-({[2-nitro-4-(pyrimidin-2-yl)phenyl]amino}methyl)phenyl]methyl}piperidine-3,4,5-triol]
IC50 [1]: < 1 nM
IC50 [2]: 64 nM
IC50 [3]: < 1 nM

[N-]=[N+]=Nc1ccc(NCCC23CC(CCN4C[C@H](O)[C@@H](O)[C@H](O)[C@H]4CO)(C2)C3)c([N+](=O)[O-])c1 [Compound 1103, (2R,3R,4R,5S)-1-[2-(3-{2-[(4-azido-2-nitrophenyl)amino]ethyl}bicyclo[1.1.1]pentan-1-yl)ethyl]-2-(hydroxymethyl)piperidine-3,4,5-triol]
IC50 [1]: 569 nM
IC50 [2]: 5 nM
IC50 [3]: 267 nM

[N-]=[N+]=Nc1ccc(NCc2ccc(Cc3ccc(CN4C[C@H](O)[C@@H](O)[C@H](O)[C@H]4CO)cc3)cc2)c([N+](=O)[O-])c1 [Compound 1105, (2R,3R,4R,5S)-1-({4-[(4-{[(4-azido-2-nitrophenyl)amino]methyl}phenyl)methyl]phenyl}methyl)-2-(hydroxymethyl)piperidine-3,4,5-triol]
IC50 [1]: 12 nM
IC50 [2]: 151 nM
IC50 [3]: 16 nM

[N-]=[N+]=Nc1ccc(NCC[C@H]2CC[C@@H](CCN3C[C@H](O)[C@@H](O)[C@H](O)[C@H]3CO)CC2)c([N+](=O)[O-])c1 [Compound 1106, (2R,3R,4R,5S)-2-(hydroxymethyl)-1-{2-[(1s,4s)-4-{2-[(4-azido-2-nitrophenyl)amino]ethyl}cyclohexyl]ethyl}piperidine-3,4,5-triol]
IC50 [1]: 6 nM
IC50 [2]: 9 nM
IC50 [3]: < 1 nM

[N-]=[N+]=Nc1ccc(NCC[C@H]2CC[C@H](CCN3C[C@H](O)[C@@H](O)[C@H](O)[C@H]3CO)CC2)c([N+](=O)[O-])c1 [Compound 1107, (2R,3R,4R,5S)-2-(hydroxymethyl)-1-{2-[(1r,4r)-4-{2-[(4-azido-2-nitrophenyl)amino]ethyl}cyclohexyl]ethyl}piperidine-3,4,5-triol]
IC50 [1]: 576 nM
IC50 [2]: 41 nM
IC50 [3]: 107 nM

O=[N+]([O-])c1cc(CN2CCCO2)ccc1NCCc1ccc(CCN2C[C@H](O)[C@@H](O)[C@H](O)[C@H]2CO)cc1 [Compound 1108, (2R,3R,4R,5S)-2-(hydroxymethyl)-1-(2-{4-[2-({2-nitro-4-[(1,2-oxazolidin-2-yl)methyl]phenyl}amino)ethyl]phenyl}ethyl)piperidine-3,4,5-triol]
IC50 [1]: 908 nM
IC50 [2]: 7 nM
IC50 [3]: 247 nM

O=[N+]([O-])c1cc(-c2cccnn2)ccc1NCCc1ccc(CCN2C[C@H](O)[C@@H](O)[C@H](O)[C@H]2CO)cc1 [Compound 1109, (2R,3R,4R,5S)-2-(hydroxymethyl)-1-{2-[4-(2-{[2-nitro-4-(pyridazin-3-yl)phenyl]amino}ethyl)phenyl]ethyl}piperidine-3,4,5-triol]
IC50 [1]: 446 nM
IC50 [2]: < 1 nM
IC50 [3]: 6 nM

O=[N+]([O-])c1cc(-c2ccncc2)ccc1NCCc1ccc(CCN2C[C@H](O)[C@@H](O)[C@H](O)[C@H]2CO)cc1 [Compound 1110, (2R,3R,4R,5S)-2-(hydroxymethyl)-1-{2-[4-(2-{[2-nitro-4-(pyridin-4-yl)phenyl]amino}ethyl)phenyl]ethyl}piperidine-3,4,5-triol]
IC50 [1]: 63 nM
IC50 [2]: < 1 nM
IC50 [3]: < 1 nM

O=[N+]([O-])c1cc(-c2ncccn2)ccc1NCCc1ccc(CCN2C[C@H](O)[C@@H](O)[C@H](O)[C@H]2CO)cc1 [Compound 1111, (2R,3R,4R,5S)-2-(hydroxymethyl)-1-{2-[4-(2-{[2-nitro-4-(pyrimidin-2-yl)phenyl]amino}ethyl)phenyl]ethyl}piperidine-3,4,5-triol]
IC50 [1]: 773 nM
IC50 [2]: 10 nM
IC50 [3]: 68 nM

O=[N+]([O-])c1cc(-c2ncco2)ccc1NCCc1ccc(CCN2C[C@H](O)[C@@H](O)[C@H](O)[C@H]2CO)cc1 [Compound 1112, (2R,3R,4R,5S)-2-(hydroxymethyl)-1-{2-[4-(2-{[2-nitro-4-(1,3-oxazol-2-yl)phenyl]amino}ethyl)phenyl]ethyl}piperidine-3,4,5-triol]
IC50 [1]: 915 nM
IC50 [2]: 101 nM
IC50 [3]: 89 nM

O=S(=O)(Nc1cc(NCCCCCCN2C[C@H](O)[C@@H](O)[C@H](O)[C@H]2CO)cc(-c2ncccn2)c1)C1CC1 [Compound 1114, N-[3-(pyrimidin-2-yl)-5-({6-[(2R,3R,4R,5S)-3,4,5-trihydroxy-2-(hydroxymethyl)piperidin-1-yl]hexyl}amino)phenyl]cyclopropanesulfonamide]
IC50 [1]: 52 nM
IC50 [2]: 3 nM
IC50 [3]: 108 nM

[N-]=[N+]=Nc1ccc(NCCc2cc(CCN3C[C@H](O)[C@@H](O)[C@H](O)[C@H]3CO)cc(C3CCCCC3)c2)c([N+](=O)[O-])c1 [Compound 1115, (2R,3R,4R,5S)-1-[2-(3-{2-[(4-azido-2-nitrophenyl)amino]ethyl}-5-cyclohexylphenyl)ethyl]-2-(hydroxymethyl)piperidine-3,4,5-triol]
IC50 [1]: 10500 nM
IC50 [2]: 1080 nM
IC50 [3]: 100 nM

COC(=O)c1cc(Cl)cc(NCCc2ccc(CCN3C[C@H](O)[C@@H](O)[C@H](O)[C@H]3CO)cc2)c1 [Compound 1116, methyl 3-chloro-5-{[2-(4-{2-[(2R,3R,4R,5S)-3,4,5-trihydroxy-2-(hydroxymethyl)piperidin-1-yl]ethyl}phenyl)ethyl]amino}benzoate]
IC50 [1]: 1230 nM
IC50 [2]: < 1 nM
IC50 [3]: 1360 nM

O=C(O)c1cc(Cl)cc(NCCc2ccc(CCN3C[C@H](O)[C@@H](O)[C@H](O)[C@H]3CO)cc2)c1 [Compound 1117, 3-chloro-5-{[2-(4-{2-[(2R,3R,4R,5S)-3,4,5-trihydroxy-2-(hydroxymethyl)piperidin-1-yl]ethyl}phenyl)ethyl]amino}benzoic acid]
IC50 [1]: 483 nM
IC50 [2]: 139 nM
IC50 [3]: 877 nM

O=C(O)c1cc(NCCCCCCN2C[C@H](O)[C@@H](O)[C@H](O)[C@H]2CO)cc(-c2ncccn2)c1 [Compound 1118, 3-(pyrimidin-2-yl)-5-({6-[(2R,3R,4R,5S)-3,4,5-trihydroxy-2-(hydroxymethyl)piperidin-1-yl]hexyl}amino) benzoic acid]
IC50 [1]: 58 nM
IC50 [2]: 5 nM
IC50 [3]: 10 nM

COc1cc(NCCc2ccc(CCN3C[C@H](O)[C@@H](O)[C@H](O)[C@H]3CO)cc2)cc(-c2noc(C3CCC3)n2)c1 [Compound 1120, (2R,3R,4R,5S)-1-{2-[4-(2-{[3-(5-cyclobutyl-1,2,4-oxadiazol-3-yl)-5-methoxyphenyl]amino}ethyl)phenyl]ethyl}-2-(hydroxymethyl)piperidine-3,4,5-triol]
IC50 [1]: 506 nM
IC50 [2]: 1 nM
IC50 [3]: 1130 nM

OC[C@@H]1[C@@H](O)[C@H](O)[C@@H](O)CN1CCc1ccc(CCNc2cc(Cl)cc(-c3noc(C4CCC4)n3)c2)cc1 [Compound 1122, (2R,3R,4R,5S)-1-{2-[4-(2-{[3-chloro-5-(5-cyclobutyl-1,2,4-oxadiazol-3-yl)phenyl]amino}ethyl)phenyl]ethyl}-2-(hydroxymethyl)piperidine-3,4,5-triol]
IC50 [1]: 1660 nM
IC50 [2]: 294 nM
IC50 [3]: 1160 nM
